Experimental data published in patent US7863449B2, “Modulators of muscarinic receptors” (Vertex Pharmaceuticals Incorporated, priority 2004, dated 2011).

How the values were obtained:
M4 muscarinic receptor = molecular target: T1, M4 muscarinic receptor (Homo sapiens, UniProt P08173); test: Functional mobilization of intracellular calcium (FLIPR), M4-CHO cells; assay type: cell-based; details: for Emax: 100% efficacy is the maximum response obtained using Carbachol as a control; for M4 Activity: M4-CHO cells, FLIPR calcium mobilization
T1 construct: expressed in transfected cells; host or cells: CHO (M4-CHO)
T1 sequence (P08173 1-479): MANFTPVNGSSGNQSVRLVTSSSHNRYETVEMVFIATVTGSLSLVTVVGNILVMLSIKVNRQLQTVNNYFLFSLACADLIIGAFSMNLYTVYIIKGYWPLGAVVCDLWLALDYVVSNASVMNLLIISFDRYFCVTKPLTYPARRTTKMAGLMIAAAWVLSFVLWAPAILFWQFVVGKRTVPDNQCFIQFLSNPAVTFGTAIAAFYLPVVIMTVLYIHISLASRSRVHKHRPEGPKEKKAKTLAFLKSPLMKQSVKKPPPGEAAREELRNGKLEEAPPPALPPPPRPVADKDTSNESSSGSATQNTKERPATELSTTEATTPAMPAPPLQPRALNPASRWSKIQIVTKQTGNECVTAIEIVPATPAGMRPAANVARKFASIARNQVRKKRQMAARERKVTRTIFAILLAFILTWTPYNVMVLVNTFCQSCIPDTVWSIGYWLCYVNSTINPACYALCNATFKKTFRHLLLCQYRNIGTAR
Procedure: (§1) Functional Mobilization of Intracellular Calcium to Determine Muscarinic Receptor Activity:
(§2) CHO cells expressing muscarinic receptors (M1 to M5) are grown as monolayers in tissue culture flasks at 37° C. in a humidified atmosphere containing 5% CO2 and passaged every 3-5 days. The growth media is Dulbecco's modified eagles medium (DMEM, Gibco Cat# 12430-054), containing 25 mM Hepes and supplemented with Fetal Bovine Serum (Hyclone, cat# SH30071.03), 0.1 mM of MEM non-essential amino acids (GIBCO, Cat# 11140-050), 1 mM MEM Sodium Pyruvate (GIBCO Cat# 11360-070) and 100 units/ml of Penicillin G and 100 μg/ml of Streptomycin (GIBCO Cat# 15140-122). The recombinant muscarinic receptor cell lines are grown under antibiotic pressure with media containing 25 μg/ml zeocin and 500 μg/ml G418 (M1-CHO), 4 μg/ml puromycin, 50 μg/ml zeocin and 2.5 μg/ml blasticidin (M2 and M4-CHO) or 50 μg/ml zeocin and 4 μg/ml puromycin (M3 and M5-CHO).
(§3) Cells are harvested at 80-90% confluence using Versene (GIBCO Cat# 15040-066), collected by centrifugation and seeded 18-24 hrs prior to running the calcium assay at a density of 5,000-10,000 cells/well in […], clear-bottomed 384-well plates (BD Biocoat, poly-D-lysine, Cat#356663). The day of the experiment, the cells are washed with a plate washer (Bioteck Instruments, ELX 405) using bath1 buffer (140-mM NaCl, 4.5-mM KCl, 2-mM CaCl2, 1-mM MgCl2, 10-mM Hepes-Na, 10-mM Glucose, pH 7.4, with NaOH) containing 1 mM Probenecid. Next, the calcium dye Fluo-3 (25 μl/well of Fluo-3 AM at 4 μM, Molecular Probes F-1241, in Bath 1 buffer containing 1 mM Probenecid) is added to the 25 μl of Bath 1 remaining in each well after the plate wash and the dye is loaded at 37° C. in the tissue culture incubator for 60-90 min. The fluorescent dye is removed using the plate washer with Bath 1 containing 1 mM Probenecid, leaving 25 μl/well of this solution after the wash. Alternatively, cells can be loaded with the calcium indicator from Molecular Devices (Calcium 3 Assay Reagents, Cat # R7181) adding 5 μl of a 5× solution dye in Bath 1 containing 1 mM Probenecid (10 ml per dye flask cat# R7182 to generate a solution 20×) to 20 μl of the same buffer. After loading for 60 min, the experiment can be run without having to remove the dye.
(§4) Compounds are prepared at a 2× fold concentration in a 96-well plate (round bottom, Costar Corning cat# 3656), by reconstituting the pre-spotted compounds in bath 1 containing 1 mM probenecid. The final concentration DMSO is 0.5%, and the amount of DMSO is normalized across the assay plate. To determine an agonist action of the compounds on muscarinic receptors, the reconstituted compounds are added (25 μl compound/well) to the cell assay plate (containing 25 μl/well) using the multi-channel robotic system of the FLIPR 3 Instrument (Molecular Devices, Sunnyvale, Calif.). To determine a functional inhibitory action of the compounds on muscarinic receptors, the reconstituted compounds are added (25 μl compound/well) to the assay plate and pre-incubated for 15 min prior to adding 25 μl of Carbachol at 3× the EC80 for each muscarinic subtype. Alternatively, the compounds can be co-applied simultaneously with the agonist. In both assay modes, the fluorescence is recorded for 60 sec (excitation wavelength is […] and emission wavelength 540 nm) using the FLIPR 3 instrument.
(§5) The potency, efficacy and selectivity of the muscarinic compounds were evaluated by screening the compound activity across the whole family (M1 to M5 cells). Compounds were also screened for activity on other proteins such as other GPCRs and ion channels to determine selectivity on M4 receptors.

M1 muscarinic receptor = molecular target: T2, M1 muscarinic receptor (Homo sapiens, UniProt P11229); test: Functional mobilization of intracellular calcium (FLIPR), M1-CHO cells; assay type: cell-based; details: for Emax: 100% efficacy is the maximum response obtained using Carbachol as a control; for M1 Activity: M1-CHO cells, FLIPR calcium mobilization
T2 construct: expressed in transfected cells; host or cells: CHO (M1-CHO)
T2 sequence (P11229 1-460): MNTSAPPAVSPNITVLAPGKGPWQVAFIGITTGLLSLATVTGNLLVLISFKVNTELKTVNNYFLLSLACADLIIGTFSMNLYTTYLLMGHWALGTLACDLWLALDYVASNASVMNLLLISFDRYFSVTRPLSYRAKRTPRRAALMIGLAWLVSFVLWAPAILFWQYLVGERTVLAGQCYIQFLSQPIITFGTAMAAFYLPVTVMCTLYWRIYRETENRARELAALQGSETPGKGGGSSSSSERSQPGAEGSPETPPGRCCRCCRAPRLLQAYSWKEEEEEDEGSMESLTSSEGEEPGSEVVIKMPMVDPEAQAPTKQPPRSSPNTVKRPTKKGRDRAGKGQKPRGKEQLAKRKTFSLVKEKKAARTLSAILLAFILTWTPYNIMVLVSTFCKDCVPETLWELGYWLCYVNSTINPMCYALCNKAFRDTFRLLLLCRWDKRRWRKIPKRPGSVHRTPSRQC
Procedure: as §1, §2, §3, §4, §5

SMILES | Emax (M4 muscarinic receptor) [%] | M4 Activity (M4 muscarinic receptor) | Emax (M1 muscarinic receptor) [%] | M1 Activity (M1 muscarinic receptor)
CC(=O)N1Cc2ccccc2C2(CCN(C3CCN(C(=O)OC(C)C)CC3)CC2)C1 [compound 88] | 25 to 100 | +++ (activity was measured to be less than 1.0 μM) | 25 to 100 | +++ (activity was measured to be less than 1.0 μM)
CCOC(=O)N1CCC(N2CCC3(CC2)c2ccccc2C(=O)N3Cc2ccccc2)CC1 [compound 20, ethyl 4-(2-benzyl-3-oxospiro[isoindoline-1,4′-piperidine]-1′-yl)piperidine-1-carboxylate] | < 25 | + (activity was measured to be greater than 5.0 μM) | 25 to 100 | ++ (activity was measured to be from 1.0 μM to 5.0 μM)
CCOC(=O)N1CCC(N2CCC3(CC2)CN(C(=O)OC2CCCC2)Cc2ccccc23)CC1 [compound 164] | 25 to 100 | +++ (activity was measured to be less than 1.0 μM) | 25 to 100 | +++ (activity was measured to be less than 1.0 μM)
CCCC(=O)N1Cc2ccccc2C2(CCN(CC3CCN(C(=O)OCC)CC3)CC2)C1 [compound 184] | 25 to 100 | +++ (activity was measured to be less than 1.0 μM) | 25 to 100 | +++ (activity was measured to be less than 1.0 μM)
O=C1c2ccccc2C2(CCN([C@@H]3C[C@@H]4CC[C@@H]3C4)CC2)N1Cc1ccccc1 [compound 227] | < 25 | + (activity was measured to be greater than 5.0 μM) | < 25 | + (activity was measured to be greater than 5.0 μM)
COCCOC(=O)N1C2CCC1CC(N1CCC3(CC1)CN(C(C)=O)Cc1ccccc13)C2 (stereo not shown) [compound 90] | 25 to 100 | +++ (activity was measured to be less than 1.0 μM) | 25 to 100 | +++ (activity was measured to be less than 1.0 μM)
CCOC(=O)N1C2CCC1CC(N1CCC3(CC1)CN(C(=O)OCCOC)Cc1ccccc13)C2 (stereo not shown) [compound 73] | 25 to 100 | +++ (activity was measured to be less than 1.0 μM) | 25 to 100 | +++ (activity was measured to be less than 1.0 μM)
CCOC(=O)N1CCC(N2CCC3(CC2)CN(C(=O)c2nc(C)oc2C)Cc2ccccc23)CC1 [compound 261] | 25 to 100 | +++ (activity was measured to be less than 1.0 μM) | 25 to 100 | +++ (activity was measured to be less than 1.0 μM)
Cc1cc(C(=O)N2Cc3ccccc3C3(CCN(C4CC5CCC(C4)N5C(=O)O[C@@H]4CCOC4)CC3)C2)nn1C (stereo partly shown) [compound 351] | 25 to 100 | +++ (activity was measured to be less than 1.0 μM) | 25 to 100 | +++ (activity was measured to be less than 1.0 μM)
CCOC(=O)N1CCC(CN2CCC3(CC2)CN(C(=O)OC2CCCC2)Cc2ccccc23)CC1 [compound 263] | 25 to 100 | +++ (activity was measured to be less than 1.0 μM) | 25 to 100 | +++ (activity was measured to be less than 1.0 μM)
CCOC(=O)N1CCC(N2CCC3(CC2)CN(C(=O)NC2CCCC2)Cc2ccccc23)CC1 [compound 283] | 25 to 100 | +++ (activity was measured to be less than 1.0 μM) | 25 to 100 | +++ (activity was measured to be less than 1.0 μM)
Cc1ccc2c(c1)C1(CCN(CC3CCOCC3)CC1)OC2=O [compound 41] | < 25 | + (activity was measured to be greater than 5.0 μM) | 25 to 100 | + (activity was measured to be greater than 5.0 μM)
COc1ccc(CN2CCC3(CC2)CN(C(C)=O)Cc2ccccc23)cc1F [compound 107] | < 25 | + (activity was measured to be greater than 5.0 μM) | < 25 | + (activity was measured to be greater than 5.0 μM)
CCOC(=O)N1C2CCC1CC(N1CCC3(CC1)CN(C(=O)C1CCCCC1)Cc1ccccc13)C2 (stereo not shown) [compound 193] | < 25 | +++ (activity was measured to be less than 1.0 μM) | 25 to 100 | +++ (activity was measured to be less than 1.0 μM)
CCCOC(=O)N1Cc2ccccc2C2(CCN(C3CCN(C(=O)OCC)CC3)CC2)C1 [compound 254] | 25 to 100 | +++ (activity was measured to be less than 1.0 μM) | 25 to 100 | +++ (activity was measured to be less than 1.0 μM)
CCOC(=O)N1CCC(N2CCC3(CC2)CN(C(=O)OC)Cc2ccccc23)CC1 [compound 240] | 25 to 100 | +++ (activity was measured to be less than 1.0 μM) | 25 to 100 | +++ (activity was measured to be less than 1.0 μM)
CCOC(=O)N1CCC(N2CCC3(CC2)CN(C(=O)Nc2ccccc2)Cc2ccccc23)CC1 [compound 16] | 25 to 100 | +++ (activity was measured to be less than 1.0 μM) | 25 to 100 | +++ (activity was measured to be less than 1.0 μM)
COCCOC(=O)N1CCC(N2CCC3(CC2)CN(C(C)=O)Cc2ccccc23)CC1 [compound 158] | 25 to 100 | +++ (activity was measured to be less than 1.0 μM) | 25 to 100 | +++ (activity was measured to be less than 1.0 μM)
CCOC(=O)N1CCC(CN2CCC3(CC2)CN(C(=O)C2CC2)Cc2ccccc23)CC1 [compound 208] | 25 to 100 | +++ (activity was measured to be less than 1.0 μM) | 25 to 100 | +++ (activity was measured to be less than 1.0 μM)
